pIC50: −log10 of the molar value. Where a name gives a salt, the structure may show the parent alone.
biological target: T1, PDE7 (type VII phosphodiesterase) (Homo sapiens, UniProt Q13946); assay: PDE7 inhibiting activity (3H-cAMP hydrolysis, active fraction from MOLT-4 cells); type: biochemical; conditions: PDE7 fraction from MOLT-4 cells, 0.064 μM cAMP, 10 μM rolipram present, 2 hours at 25° C.; read-out: IC50 values for phosphodiesterase inhibiting activities (PDE7)
T1 construct: endogenous in cells; host or cells: MOLT-4 (ATCC CRL-1582), soluble fraction, HiTrapQ anion-exchange fraction
Description: To evaluate the compounds of the present invention for the ability to suppress PDE7 (type VII phosphodiesterase), the method of Biochemical Pharmacol. 48(6), 1219-1223 (1994) was partially modified to perform the following assay:
1) PDE7 (type VII phosphodiesterase) active fraction was obtained. That is, human acute lymphoblastoid lymphoma T cell strain MOLT-4 (purchasable from ATCC under ATCC No. CRL-1582) was cultured in RPMI1640 medium containing 10% fetal bovine serum to obtain 5×10^8 MOLT4 cells. The cells were harvested by centrifugation, and suspended in 10 ml of buffer A (25 mM tris-HCl, 5 mM 2-mercaptoethanol, 2 mM benzamidine, 2 mM EDTA, 0.1 mM 4-(2-aminoethyl)benzenesulfonyl hydrochloride, pH 7=7.5). The cells were homogenized in a Polytoron homogenizer, and centrifuged (4° C., 25,000 G, 10 min). The supernatant was further ultracentrifuged (4° C., 100,000 G, 60 min), and the resulting supernatant was filtered through a 0.2 μm filter to obtain a soluble fraction.
2) HiTrapQ column (5 ml×2) equilibrated with buffer A was charged with the resulting soluble fraction. Phosphodiesterase was eluted using 300 ml of buffer A containing a linear gradient solution of 0 to 0.8M sodium chloride to collect sixty 5 ml fractions. Each fraction was tested for cAMP metabolizing phosphodiesterase activity.
3) The test compounds at desired concentrations were each reacted for 2 hours at 25° C. in a reactant mixture containing 20 mM tris-HCl (pH 7.5), 1 mM MgCl2, 100 μM EDTA, 330 μg/ml bovine serum albumin, 4 μg/ml 5′-nucleotidase, 0.1 μCi^3H-cAMP (0.064 μM cAMP), 10 μM rolipram, and the type VII phosphodiesterase stored solution. QAE-Sephadex suspended in 10 mM HEPES-Na (pH 7.0) was added to the reaction mixture, and the mixture was allowed to stand for 5 minutes. Then, the supernatant was recovered, and QAE-Sephadex was further added, followed by allowing the mixture to stand for 5 minutes. Then, the resulting supernatant was measure for radioactivity.
4) IC50, as the concentration of the test compound that inhibited 50% of the metabolic activity of PDE7, was calculated for each of the compounds.

T1 sequence (Q13946 whole entry): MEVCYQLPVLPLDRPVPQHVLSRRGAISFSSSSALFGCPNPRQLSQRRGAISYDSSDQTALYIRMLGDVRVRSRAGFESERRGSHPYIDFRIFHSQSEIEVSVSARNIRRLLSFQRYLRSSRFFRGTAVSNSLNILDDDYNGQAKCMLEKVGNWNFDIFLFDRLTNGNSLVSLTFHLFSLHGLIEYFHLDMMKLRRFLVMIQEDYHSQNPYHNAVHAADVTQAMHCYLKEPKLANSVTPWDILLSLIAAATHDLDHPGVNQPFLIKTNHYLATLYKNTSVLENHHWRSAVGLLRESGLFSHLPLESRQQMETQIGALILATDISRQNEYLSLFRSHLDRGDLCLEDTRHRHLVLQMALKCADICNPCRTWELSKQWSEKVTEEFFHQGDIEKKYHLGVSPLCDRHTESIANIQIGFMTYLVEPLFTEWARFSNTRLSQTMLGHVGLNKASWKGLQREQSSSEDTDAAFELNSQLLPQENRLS

Row | Compound | pIC50
1 | CNC1CCN(c2ccc(-c3nc4c(C)nn(C5CCCCC5)c4c(=O)[nH]3)c(OC)c2)CC1 [Example 92, 1-Cyclohexyl-5-{2-methoxy-4-[4-(methylamino)-1-piperidinyl]phenyl}-3-methyl-1,6-dihydro-7H-pyrazolo[4,3-d]pyrimidin-7-one] | ≥ 8.00
2 | CCNC1CCN(c2ccc(-c3nc4c(c(C5CCCCC5)nn4C)c(=O)[nH]3)c(OC)c2)CC1 [Example 97, 3-Cyclohexyl-6-{2-methoxy-4-[4-(ethylamino)-1-piperidinyl]phenyl}-1-methyl-1,5-dihydro-4H-pyrazolo[3,4-d]pyrimidin-4-one] | ≥ 8.00
3 | COc1cc(N(C)CCO)ccc1-c1nc2c(C)nn(C3CCCCC3)c2c(=O)[nH]1 [Example 107, 1-Cyclohexyl-5-{4-[(2-hydroxyethyl)(methyl)amino]-2-methoxyphenyl}-3-methyl-1,6-dihydro-7H-pyrazolo[4,3-d]pyrimidin-7-one] | ≥ 8.00
4 | COc1cc(N2CCCN(C)CC2)ccc1-c1nc2c(C)nn(C3CCCCC3)c2c(=O)[nH]1 [Example 112, 1-Cyclohexyl-5-[2-methoxy-4-(4-methyl-1,4-diazepan-1-yl)phenyl]-3-methyl-1,6-dihydro-7H-pyrazolo[4,3-d]pyrimidin-7-one] | ≥ 6.00
5 | CCN(CCO)c1ccc(-c2nc3c(C)nn(C4CCCCC4)c3c(=O)[nH]2)c(OC)c1 [Example 115, 1-Cyclohexyl-5-{4-[(2-hydroxyethyl)(ethyl)amino]-2-methoxyphenyl}-3-methyl-1,6-dihydro-7H-pyrazolo[4,3-d]pyrimidin-7-one monohydrochloride] | ≥ 6.00
6 | COc1cc(N2CCC(N(C)C(C)=O)CC2)ccc1-c1nc2c(C)nn(C3CCCCC3)c2c(=O)[nH]1 [Example 119, N-{1-[4-(1-cyclohexyl-3-methyl-7-oxo-6,7-dihydro-1H-pyrazolo[4,3-d]pyrimidin-5-yl)-3-methoxyphenyl]-4-piperidiny}-N-methylacetamide] | ≥ 6.00
7 | COc1cc(C2=CCN(C)CC2)ccc1-c1nc2c(C)nn(C3CCCCC3)c2c(=O)[nH]1 [Example 123, 1-Cyclohexyl-5-[2-methoxy-4-(1-methyl-1,2,3,6-tetrahydro-4-pyridinyl)phenyl]-3-methyl-1,6-dihydro-7H-pyrazolo[4,3-d]pyrimidin-7-one] | ≥ 6.00
8 | COc1cc(C2CCN(C)CC2)ccc1-c1nc2c(C)nn(C3CCCCC3)c2c(=O)[nH]1 [Example 124, 1-Cyclohexyl-5-[2-methoxy-4-(1-methyl-4-piperidinyl)phenyl]-3-methyl-1,6-dihydro-7H-pyrazolo[4,3-d]pyrimidin-7-one] | ≥ 6.00
9 | COc1cc(N2CCCNCC2)ccc1-c1nc2c(C)nn(C3CCCCC3)c2c(=O)[nH]1 [Example 125, 1-Cyclohexyl-5-[4-(1,4-diazepan-1-yl)-2-methoxyphenyl]-3-methyl-1,6-dihydro-7H-pyrazolo[4,3-d]pyrimidin-7-one] | ≥ 8.00
10 | COc1cc(N2CCCNCC2)ccc1-c1nc2c(c(C3CCCCC3)nn2C)c(=O)[nH]1 [Example 134, 3-Cyclohexyl-6-[4-(1,4-diazepan-1-yl)-2-methoxyphenyl]-1-methyl-1,5-dihydro-4H-pyrazolo[3,4-d]pyrimidin-4-one monomethanesulfonate] | ≥ 8.00
11 | COc1cc(N2CCCN(C)CC2)ccc1-c1nc2c(c(C3CCCCC3)nn2C)c(=O)[nH]1 [Example 136, 3-Cyclohexyl-6-[2-methoxy-4-(4-methyl-1,4-diazepan-1-yl)phenyl]-1-methyl-1,5-dihydro-4H-pyrazolo[3,4-d]pyrimidin-4-one monomethanesulfonate] | ≥ 8.00
12 | CN1CCN(c2ccc(-c3nc4c(c(C5CCCCC5)nn4C)c(=O)[nH]3)c(OC(F)F)c2)CC1 [Example 139, 3-Cyclohexyl-6-[2-(difluoromethoxy)-4-(4-methyl-1-piperazinyl)phenyl]-1-methyl-1,5-dihydro-4H-pyrazolo[3,4-d]pyrimidin-4-one monomethanesulfonate] | ≥ 6.00

Other lines, results leading:

Row | pIC50 | Compound
13 | ≥ 8.00 | CCOc1cc(N2CCC(NC)CC2)ccc1-c1nc2c(c(C3CCCCC3)nn2C)c(=O)[nH]1 [Example 90, 3-Cyclohexyl-6-{2-ethoxy-4-[4-(methylamino)-1-piperidinyl]phenyl}-1-methyl-1,5-dihydro-4H-pyrazolo[3,4-d]pyrimidin-4-one monomethanesulfonate]
14 | ≥ 8.00 | CNC1CCN(c2ccc(-c3nc4c(c(C5CCCCCC5)nn4C)c(=O)[nH]3)c(OC)c2)CC1 [Example 95, 3-Cycloheptyl-6-{2-methoxy-4-[4-(methylamino)-1-piperidinyl]phenyl}-1-methyl-1,5-dihydro-4H-pyrazolo[3,4-d]pyrimidin-4-one monomethanesulfonate]
15 | ≥ 6.00 | CCNC1CCN(c2ccc(-c3nc4c(C)nn(C5CCCCC5)c4c(=O)[nH]3)c(OC)c2)CC1 [Example 99, 1-Cyclohexyl-5-{2-methoxy-4-[4-(ethylamino)-1-piperidinyl]phenyl}-3-methyl-1,6-dihydro-7H-pyrazolo[4,3-d]pyrimidin-7-one]
16 | ≥ 8.00 | CNCCN(C)c1ccc(-c2nc3c(C)nn(C4CCCCC4)c3c(=O)[nH]2)c(OC)c1 [Example 103, 1-Cyclohexyl-5-(2-methoxy-4-{methyl[2-(methylamino)ethyl]amino}phenyl)-3-methyl-1,6-dihydro-7H-pyrazolo[4,3-d]pyrimidin-7-one monofumarate]
17 | ≥ 8.00 | COc1cc(N2CCC(CO)CC2)ccc1-c1nc2c(C)nn(C3CCCCC3)c2c(=O)[nH]1 [Example 109, 1-Cyclohexyl-5-{4-[4-(hydroxymethyl)-1-piperidinyl]-2-methoxyphenyl}-3-methyl-1,6-dihydro-7H-pyrazolo[4,3-d]pyrimidin-7-one]
18 | ≥ 8.00 | CNCCCN(C)c1ccc(-c2nc3c(C)nn(C4CCCCC4)c3c(=O)[nH]2)c(OC)c1 [Example 111, 1-Cyclohexyl-5-(2-methoxy-4-{methyl[3-(methylamino)propyl]amino}phenyl)-3-methyl-1,6-dihydro-7H-pyrazolo[4,3-d]pyrimidin-7-one monofumarate]
19 | ≥ 8.00 | CCOc1cc(NCCOC)ccc1-c1nc2c(c(C3CCCCC3)nn2C)c(=O)[nH]1 [Example 117, 3-Cyclohexyl-6-{2-ethoxy-4-[(2-methoxyethyl)amino]phenyl}-1-methyl-1,5-dihydro-4H-pyrazolo[3,4-d]pyrimidin-4-one]
20 | ≥ 6.00 | COc1cc(N2CCC(N(C)C=O)CC2)ccc1-c1nc2c(C)nn(C3CCCCC3)c2c(=O)[nH]1 [Example 118, 1-[4-(1-Cyclohexyl-3-methyl-7-oxo-6,7-dihydro-1H-pyrazolo[4,3-d]pyrimidin-5-yl)-3-methoxyphenyl]-4-piperidiny(methyl)formamide]
21 | ≥ 8.00 | CCOc1cc(N2CCC(NC)CC2)ccc1-c1nc2c(C)nn(C3CCCCC3)c2c(=O)[nH]1 [Example 121, 1-Cyclohexyl-5-{2-ethoxy-4-[4-(methylamino)-1-piperidinyl]phenyl}-3-methyl-1,6-dihydro-7H-pyrazolo[4,3-d]pyrimidin-7-one]
22 | ≥ 6.00 | COc1cc(N2CCCN(C(C)=O)CC2)ccc1-c1nc2c(C)nn(C3CCCCC3)c2c(=O)[nH]1 [Example 126, 5-[4-(4-Acetyl-1,4-diazepan-1-yl)-2-methoxyphenyl]-1-cyclohexyl-3-methyl-1,6-dihydro-7H-pyrazolo[4,3-d]pyrimidin-7-one]
23 | ≥ 6.00 | CCN1CCCN(c2ccc(-c3nc4c(C)nn(C5CCCCC5)c4c(=O)[nH]3)c(OC)c2)CC1 [Example 127, 1-Cyclohexyl-5-[4-(4-ethyl-1,4-diazepan-1-yl)-2-methoxyphenyl]-3-methyl-1,6-dihydro-7H-pyrazolo[4,3-d]pyrimidin-7-one]
24 | ≥ 6.00 | CNC1CCN(c2cc(OC)c(-c3nc4c(C)nn(C5CCCCC5)c4c(=O)[nH]3)cc2F)CC1 [Example 129, 1-Cyclohexyl-5-{5-fluoro-2-methoxy-4-[4-(methylamino)-1-piperidinyl]phenyl}-3-methyl-1,6-dihydro-7H-pyrazolo[4,3-d]pyrimidin-7-one]
25 | ≥ 6.00 | CCOc1cc(N2CCCN(C)CC2)ccc1-c1nc2c(C)nn(C3CCCCC3)c2c(=O)[nH]1 [Example 130, 1-Cyclohexyl-5-[4-(4-methyl-1,4-diazepan-1-yl)-2-ethoxyphenyl]-3-methyl-1,6-dihydro-7H-pyrazolo[4,3-d]pyrimidin-7-one]
26 | ≥ 8.00 | COc1cc(N(C)CCN(C)C)ccc1-c1nc2c(c(C3CCCCC3)nn2C)c(=O)[nH]1 [Example 132, 3-Cyclohexyl-6-{4-[[2-(dimethylamino)ethyl](methyl)amino]-2-methoxyphenyl}-1-methyl-1,5-dihydro-4H-pyrazolo[3,4-d]pyrimidin-4-one monomethanesulfonate]

Reference: patent publication US7268128B2, “1,3,5-trisubstituted-5-phenyl and 5-pyridyl pyrazolopyrimidinone derivatives having PDE7 inhibiting action” (Ausbio Pharma Co., Ltd., priority 2001, dated 2007)
